The values below come from patent US20240217966A1, “PHARMACEUTICAL COMPOSITION CONTAINING GLP-1 RECEPTOR AGONIST HAVING FUSED RING” (Shionogi & Co., Ltd., priority 2021, published 2024).

Read-outs that look alike come from different tables or passages of the source.

Usually Emax stands for the size of the effect at its maximum, as opposed to the concentration needed. Broadly, the EC50 is the concentration needed to bring the measured effect to its halfway point. A high value points to a need for much substance.

The target of one data set is T1, Human GLP-1 receptor (Homo sapiens, UniProt P43220).
T1 construct: expressed in transfected cells
T1 sequence (P43220 24-463): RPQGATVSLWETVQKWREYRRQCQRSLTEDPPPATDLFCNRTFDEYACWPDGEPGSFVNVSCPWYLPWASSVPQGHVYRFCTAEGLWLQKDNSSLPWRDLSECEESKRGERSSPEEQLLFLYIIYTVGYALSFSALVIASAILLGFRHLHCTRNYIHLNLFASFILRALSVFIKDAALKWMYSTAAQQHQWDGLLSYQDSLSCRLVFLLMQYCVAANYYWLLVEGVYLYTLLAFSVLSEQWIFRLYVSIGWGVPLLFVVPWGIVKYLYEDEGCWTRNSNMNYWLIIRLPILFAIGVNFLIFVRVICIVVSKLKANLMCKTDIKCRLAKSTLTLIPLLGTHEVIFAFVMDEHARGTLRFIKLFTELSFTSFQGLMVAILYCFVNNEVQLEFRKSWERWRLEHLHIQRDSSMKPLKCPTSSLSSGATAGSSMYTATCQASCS
Description: Measurement of GLP-1 receptor agonist activity (cAMP assay). In kind it is cell-based. The gist of the method:
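hGLP-1R/CHO-K1 cells in HBSS with 0.1% BSA, 20 mM HEPES, 0.1 mM IBMX and 0.2 mM RO20-1724 exposed to compound plus forskolin (400 μM stock) for 1 h at 37 °C. Intracellular cAMP read by HTRF (cAMP-d2/anti-cAMP cryptate, 1 h at room temperature).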
A general note: cAMP levels reflect the balance of adenylyl cyclase and phosphodiesterase activity.

The nature of data set [1]: Metabolism stability test (Test Example 2-2). In kind it is in vitro ADME. To be noted: pooled human liver microsomes 0.5 mg protein/mL, 37° C., 30 minutes, 1 mmol/L NADPH (oxidative reaction), compound concentration 0.5 μmol/L. How it is done:
Test Example 2-2: Metabolism Stability Test
Using commercially available pooled human liver microsomes, a compound of the present invention is reacted for a constant time, and a remaining rate is calculated by comparing a reacted sample and an unreacted sample, thereby, a degree of metabolism in liver is assessed.
A reaction is performed (oxidative reaction) at 37° C. for 0 minute or 30 minutes in the presence of 1 mmol/L NADPH in 0.2 mL of a buffer (50 mmol/L Tris-HCl pH 7.4, 150 mmol/L potassium chloride, 10 mmol/L magnesium chloride) containing 0.5 mg protein/mL of human liver microsomes. After the reaction, 70 μL of the reaction solution is added to 140 μL of a methanol/acetonitrile=1/1 (v/v), mixed and centrifuged at 3000 rpm for 15 minutes. The compound of the present invention in the centrifuged supernatant is quantified by LC/MS/MS or solid-phase extraction (SPE)/MS. The ratio of the amount of the compound after the reaction, with respect to the amount of the compound at 0 minutes of the reaction defined as 100%, is shown as the residual rate. Hydrolysis reaction is performed in the absence of NADPH, and glucuronidation reaction is performed in the presence of 5 mmol/L UDP-glucuronic acid instead of NADPH. Then, the same operation is carried out. The dilution concentration or the dilution solvent are changed as necessary.
The compounds of the present invention were tested essentially as described above.
(In general: Liver microsomes are a subcellular fraction often used to study metabolism.)

Where [2] appears, read: CHO-K1, hGLP-1R/CHO-K1 cells, cAMP, 100% = human GLP-1 (7-36) at 2 nM, 0% = DMSO only, read-out: Emax(%).
Setting [3] is: hGLP-1R/CHO-K1 cells, cAMP increase, 37° C. 1 hour.

Take `O=C(O)c1cc(F)c2nc(CN3CCc4cc(C(F)(F)F)c(OCc5ccc(Cl)cc5F)cc4C3)n(C[C@@H]3CCO3)c2c1` [Compound I-033]: at Human GLP-1 receptor (setting [2]), the Emax is 109%. Moreover, the response on Human GLP-1 receptor (setting [3]) was half-maximal at 1.49 nM (EC50). In data set [1], the “residual rate of the compound” value turned out to be 87.1%.
In the same order, the values of `C[C@H]1c2cc(OCc3ccc(Cl)cc3F)c(C(F)(F)F)cc2CCN1Cc1nc2ccc(C(=O)O)cc2n1C[C@@H]1CCO1` [Compound I-035] are 129%, 0.298 nM and 87.1%.
On the same counts, the results for `O=C(O)c1ccc2nc(Cc3ccc4nc(C(F)(F)F)c(OCc5ccc(Cl)cc5F)nc4c3F)n(C[C@@H]3CCO3)c2c1` [Compound I-109] are 114%, 0.472 nM and 99.6%.
On the same counts, the results for `C[C@H]1c2cc(OCc3ccc(Cl)cc3F)c(C(F)(F)F)cc2CCN1Cc1nc2ccc(C(=O)O)c(F)c2n1C[C@@H]1CCO1` [Compound I-117] are 117%, 0.327 nM and 96.9%.
For `C[C@H]1c2cc(OCc3ccc(F)cc3)c(C(F)(F)F)cc2CCN1Cc1nc2ccc(C(=O)O)cc2n1C[C@@H]1CCO1` [Compound I-123], the Emax at Human GLP-1 receptor (setting [2]) came out at 97.7%. The midpoint of the response on Human GLP-1 receptor (setting [3]), the EC50, lay at 3.76 nM. Further, the “residual rate of the compound” value in data set [1] is given as more than 99.9%.
Regarding `C[C@H]1c2nc(OCc3ccc(Cl)cc3F)c(C(F)(F)F)cc2CCN1Cc1nc2ccc(C(=O)O)cc2n1C[C@@H]1CCO1` [Compound I-145], the Emax at Human GLP-1 receptor (setting [2]) worked out at 108%. Moreover, the midpoint of the response on Human GLP-1 receptor (setting [3]), the EC50, lay at 0.0938 nM. Also, in data set [1], the “residual rate of the compound” value is 94.0%.
In the same order, the values of `C[C@H]1c2nc(OCc3ccc(Cl)cc3F)c(C(F)(F)F)cc2CCN1Cc1nc2ccc(C(=O)O)c(F)c2n1C[C@@H]1CCO1` [Compound I-160] are 118%, 0.0524 nM and 92.4%.
Turning to `C[C@H]1c2nc(OCc3ccc(Cl)cc3F)ccc2CCN1Cc1nc2ccc(C(=O)O)cc2n1C[C@@H]1CCO1` [Compound I-395], the Emax on Human GLP-1 receptor (CHO-K1, maximum effect, cAMP increase in GLP-1 R/CHO-K1 cells, 2 nM human GLP-1 (7-36) = 100%, DMSO only = 0%, read-out: Emax) is 89.7%. For the same compound, a half-maximal response on Human GLP-1 receptor (cAMP increase in GLP-1 R/CHO-K1 cells, 2 nM human GLP-1 (7-36) = 100%, DMSO only = 0%) (EC50) required 0.618 nM.
